Four compounds from US5719143A, “Polysubstituted 3-acylamino-5-phenyl-1, 4-benzodiazepin-2-one derivatives, process for their preparation and the pharmaceutical compositions containing them” (Sanofi, priority 1994, dated 1998) can be followed below.

In assay [1] the test system is biliary emptying. Description: in vivo biliary emptying model in fasted mice. To be noted: Mus musculus, po, 1 h, administered orally one hour before the sacrifice, bile vesicle weight. How it is done: The compounds are administered orally one hour before the sacrifice. The bile vesicle is removed and then weighed and the results, expressed in mg/kg of body weight, reveal for the compound of Example 10, for example, an ED50 of 0.3 mg/kg.

The subject of assay [2] is CCKA receptors. Briefly: in vitro affinity measurement, CCKA receptors. The format is binding. How it is done:
These compounds have formed the subject of in vitro affinity measurement studies concerning the CCKA receptors.
(§1) This affinity is between 0.5 and 100 nM with a selectivity for the CCKA receptors over the CCKB receptors which may reach a factor of 10,000 for the compound of Example 1, for example.

Assay [3] deals with CCKB receptor. Briefly: in vitro affinity measurement, CCKB receptor. The format is binding. How it is done: as §1

The term ED50 denotes the dose at which the effect has come halfway, by size or by number of responders. High values mean weaker potency, low ones greater potency. As to `COc1cc(C)cc(OC)c1C1=NC(NC(=O)c2cc3ccccc3[nH]2)C(=O)N(C)c2ccccc21` (single isomer, unassigned; (+)) [Example 10, (+)-N-[2,3-dihydro-5-(2,6-dimethoxy-4-methylphenyl)-1-methyl-2-oxo-1H-1,4-benzodiazepin-3-yl]-1H-indole-2-carboxamide], in assay [1], the ED50 came out at 0.3 mg/kg.

Regarding `COc1cc(C)cc(OC)c1C1=NC(NC(=O)c2cc3ccccc3[nH]2)C(=O)N(C)c2ccccc21` (stereo not shown) [Example 1, N-[2,3-dihydro-5-(2,6-dimethoxy-4-methylphenyl)-1-methyl-2-oxo-1H-1,4-benzodiazepin-3-yl]-1H-2-indolecarboxamide], the “selectivity for the CCKA receptors over the CCKB receptors (factor)” value in assay [2] is 10,000.

With `COc1cc(C)cc(OC)c1C1=NC(NC(=O)Nc2cccc(C)c2)C(=O)N(C)c2ccccc21` (stereo not shown) [Example 6, 1,3-dihydro-5-(2,6-dimethoxy-4-methylphenyl)-1-methyl-3-(3-methylphenylureido)-1,4-benzodiazepin-2-one], the “affinity for the CCKB receptor compared with that for the CCKA receptor” value in assay [3] is “identical to or greater than that obtained for the CCKA receptor”.

Consider `COc1cc(OC)c(C2=NC(NC(=O)Nc3cccc(C)c3)C(=O)N(C)c3ccccc32)c(OC)c1` (stereo not shown) [Example 7, 1,3-dihydro-1-methyl-3-(3-methylphenylureido)-5-(2,4,6-trimethoxyphenyl)-1,4-benzodiazepin-2-one], for which the “affinity for the CCKB receptor compared with that for the CCKA receptor” value in assay [3] is reported as “identical to or greater than that obtained for the CCKA receptor”.
